Laboratory results reported in US8546378B2, “5HT2C receptor modulator compositions and methods of use” (Arena Pharmaceuticals, Inc., priority 2004, dated 2013).

What follows are compounds tested against T1, human 5-HT2C receptor (Homo sapiens, UniProt P28335) (assay: Intracellular IP3 Accumulation Assay). Details: HEK293 cells transfected with human 5-HT2C receptor; averages of at least two trials; read-out: 5-HT2C (EC50) IP Accumulation Assay.
T1 construct: expressed in transfected cells; host or cells: HEK293
T1 sequence (P28335 33-458): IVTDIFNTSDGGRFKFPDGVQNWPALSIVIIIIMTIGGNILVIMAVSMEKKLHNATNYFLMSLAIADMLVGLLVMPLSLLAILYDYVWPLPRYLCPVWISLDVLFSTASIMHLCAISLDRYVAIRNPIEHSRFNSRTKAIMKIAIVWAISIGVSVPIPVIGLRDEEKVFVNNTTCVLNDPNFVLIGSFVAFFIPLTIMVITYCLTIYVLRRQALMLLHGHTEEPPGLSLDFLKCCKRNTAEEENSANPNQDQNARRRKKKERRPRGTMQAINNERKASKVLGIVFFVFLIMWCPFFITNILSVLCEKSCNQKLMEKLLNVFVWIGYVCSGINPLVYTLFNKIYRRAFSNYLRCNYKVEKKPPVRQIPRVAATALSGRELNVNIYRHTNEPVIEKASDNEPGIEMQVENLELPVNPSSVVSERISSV
Assay type: cell-based
Procedure: HEK293 cells were transfected in 15 cm sterile dishes with or without (control) 16 μg of human 5-HT2C receptor cDNA using 25 μl of lipofectamine. Cells were then incubated for 3-4 hours at 37° C./5% CO2 and then transfection media was removed and replaced with 100 μl of DMEM. Cells were then plated onto 100 cm sterile dishes. The next day cells were plated into 96 well PDL microtiter plates at a density of 55K/0.2 ml. Six hours latter, media was exchanged with [^3H]inositol (0.25 μCi/well) in inositol free DMEM and plates were incubated at 37° C./5% CO2 overnight. The next day, wells were aspirated and 200 μl of DMEM containing test compound, 10 μM pargyline, and 10 mM LiCl was added to appropriate wells. Plates were then incubated at 37° C./5% CO2 for three hours followed aspiration and by addition of fresh ice cold stop solution (1M KOH, 19 mM Na-borate, 3.8 mM EDTA) to each well. Plates were kept on ice for 5-10 min and the wells were neutralized by addition of 200 μl of fresh ice cold neutralization solution (7.5% HCl). Plates were then frozen until further processing is desired. The lysate was then transferred into 1.5 ml Eppendorf tubes and 1 ml of chloroform/methanol (1:2) was added/tube. The solution was vortexed for 15 seconds and the upper phase was applied to a Biorad AG1-X8™ anion exchange resin (100-200 mesh). First, the resin was washed with water at 1:1.25 W/V and 0.9 ml of upper phase was loaded onto the column. The column was then washed with 10 ml of 5 mM myo-inositol and 10 ml of 5 mM Na-borate/60 mM Na-formate. The inositol tris phosphates were eluted into scintillation vials containing 10 ml of scintillation cocktail with 2 ml of 0.1 M formic acid/1 M ammonium formate. The columns were regenerated by washing with 10 ml of 0.1 M formic acid/3M ammonium formate and rinsed twice with dd H2O and stored at 4° C. in water.

SMILES | EC50
COc1cc2c(cc1Br)C(C)CNCC2 (racemic) [Example 1, (R,S) 8-Bromo-7-methoxy-1-methyl-2,3,4,5-tetrahydro-1H-3-benzazepine] | 4.2 nM
COc1cc2c(cc1Cl)C(C)CNCC2 (racemic) [Example 2, (R,S) 8-Chloro-7-methoxy-1-methyl-2,3,4,5-tetrahydro-1H-3-benzazepine] | 4.5 nM
COc1cc2c(cc1I)C(C)CNCC2 (racemic) [Example 3, (R,S) 8-Iodo-7-methoxy-1-methyl-2,3,4,5-taetrhydro-1H-3-benzazepine] | 1.4 nM
CC1CNCCc2cc(O)c(Br)cc21 (racemic) [Example 4, (R,S) 8-Bromo-7-hydroxy-1-methyl-2,3,4,5-tetrahydro-1H-3-benzazepine] | 2.1 nM
C=CCOc1cc2c(cc1Br)C(C)CNCC2 (racemic) [Example 5, (R,S) 7-Allyloxy-8-bromo-1-methyl-2,3,4,5-tetrahydro-1H-3-benzazepine] | 12.1 nM
C=CCOc1cc2c(cc1I)C(C)CNCC2 (racemic) [Example 12, (R,S) 7-Allyloxy-8-iodo-1-methyl-2,3,4,5-tetrahydro-1H-3-benzazepine] | 6.3 nM
CCC1CNCCc2cc(OC)c(Br)cc21 (racemic) [Example 19, (R,S) 8-Bromo-1-ethyl-7-methoxy-2,3,4,5-tetrahydro-1H-3-benzazepine] | 18 nM
CC1CNCCc2ccc(Br)cc21 (racemic) [Example 32, (R,S) 8-Bromo-1-methyl-2,3,4,5-tetrahydro-1H-3-benzazepine] | 2.1 nM

These compounds were tested on Sprague-Dawley (SD) rats (assay: Food intake in rats: selective 5HT-2C agonist alone, phentermine alone, or combination (Example 59)). Details: female SD rats; perorally; 2 h food intake; FIG. 3A; two-way ANOVA, Bonferroni p<0.01.
Assay type: in vivo, rat
Procedure: Female (weight 225-250 g) and male (weight 250-275 g) Sprague-Dawley (SD) rats were purchased from Harlan (San Diego, Calif.) and housed 4 per cage in a temperature controlled environment under a 17 h/7 h light/dark cycle (lights out at 10:00 am). Water and Chow was available (LabDiet 8604) ad libitum for two weeks. The animals were handled for 2 occasions during this time. On the morning of the study, the animals were individually housed with no food or bedding and dosed perorally with 1 ml/kg of compound or vehicle 30 minutes prior to lights out. At lights out, the animals were given a pre-weighed amount of chow and placed near the food bowl. Two hours later the remaining chow was weighed and the study concluded.

SMILES | effect on food intake in female rats
C[C@H]1CNCCc2ccc(Cl)cc21 [Compound B, (R)-8-chloro-1-methyl-2,3,4,5-tetrahydro-1H-3-benzazepine] | No other significant differences between groups
CC(C)(N)Cc1ccccc1 [phentermine, 1,1-Dimethyl-2-phenyl-ethylamine, reference compound] | No other significant differences between groups

Same assay, conditions: male SD rats; perorally; 2 h food intake; FIG. 3B; two-way ANOVA, Bonferroni p<0.01

SMILES | effect on food intake in male rats
C[C@H]1CNCCc2ccc(Cl)cc21 [Compound B, (R)-8-chloro-1-methyl-2,3,4,5-tetrahydro-1H-3-benzazepine] | No other significant differences between groups
CC(C)(N)Cc1ccccc1 [phentermine, 1,1-Dimethyl-2-phenyl-ethylamine, reference compound] | No other significant differences between groups
